According to patent US4593090A, “Novel nitrosourea compounds, method for preparing same, and pharmaceutical composition containing same” (Gogo Kimura, priority 1981, dated 1986):

Key:
[1] = test system: Leukemia L1210; test: Activity against Leukemia L1210, intraperitoneal, increase in life span of mice; type: in vivo, female mice (BDF1 family); details: for O.D. (optimum dosage) / ILS30 / ED (maximum ILS) / ED30: ip once a day for 5 successive days; for O.D. (optimum dosage) / ED (maximum ILS): daily dosage giving maximum increase of life span; for ILS30 / ED30: daily dosage increasing average survival days by 30%; for Survivors after 60 days / Max. ILS % / Therapeutic ratio TR: ip; for Survivors after 60 days: 6-membered group; for Max. ILS %: 60-day observation, versus control; for Therapeutic ratio TR: O.D./ILS30; for ED (maximum ILS) / ED30: Mus musculus, L1210, ip; for ED (maximum ILS): read-out: O.D. (optimum dosage); for ED30: read-out: ILS30
Summary of the method: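 L1210 cells (1×10^5) into abdominal cavity of female BDF1 mice, 20–23 g, n=6/group. Dosing 24 h post-implant, ip or po, qd ×5. 60-day observation; ILS% = mean survival vs untreated control; T.R. = O.D./ILS 30.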

[2] = Acute toxicity (LD50, Behrens-Karber method); type: in vivo, ICR mice; details: ip, mortality during 30 days; for LD50 at 720 h: mouse, in vivo
Method: Test compounds, dissolved or suspended in 0.5% aqueous CMC, were each intraperitoneally administered to ICR mice in a dose of 0.1 ml per 10 g body weight. LD50 (mg/kg) value of each test compound was calculated from the mortality of mice during 30 days by the Behrens-Karber method.

With “3-(2-methoxyethyl)-3-(1-methoxyethyl α-D-glucopyranose-3-yl)-1-(2-chloroethyl)-1-nitrosourea [Compound 80]” the “O.D. (optimum dosage)” value [1] was 200 mg/kg, the ILS30 [1] was 4.17 mg/kg and the “Survivors after 60 days” value [1] was 5/6. The “Max. ILS %” value [1] was > 625%, the “Therapeutic ratio TR” value [1] was 48.0 and the LD50 [2] was 640 mg/kg.

With `CC(C)CO[C@@H]1OC[C@H](N(C(=O)N(CCCl)N=O)C2CCCCC2)[C@H](O)[C@H]1O` [Compound 152] the ED (maximum ILS) [1] was 170 mg/kg, the ED30 [1] was 4.31 mg/kg and the “Survivors after 60 days” value [1] was 4/6. For the same compound, the “Max. ILS %” value [1] was > 425%, the “Therapeutic ratio TR” value [1] was 43.1 and the LD50 at 720 h [2] was 550 mg/kg.

For `CO[C@H]1O[C@H](CN(CCO)C(=O)N(CCCl)N=O)[C@@H](O)[C@H](O)[C@H]1O` [Compound 6MCαGHE, 3-(2-hydroxyethyl)-3-(methyl α-D-glucopyranose-6-yl)-1-(2-chloroethyl)-1-nitrosourea, reference compound], the ED (maximum ILS) [1] was 30 mg/kg, the ED30 [1] was 1.4 mg/kg and the “Survivors after 60 days” value [1] was 4/6. For the same compound, the “Max. ILS %” value [1] was > 440%, the “Therapeutic ratio TR” value [1] was 21.4 and the LD50 at 720 h [2] was 90 mg/kg.

With `C=C(C)CN(C(=O)N(CCCl)N=O)[C@@H]1[C@H](O)[C@@H](O)[C@@H](OCC(COC)OC)O[C@@H]1CO` (stereo partly drawn) [Compound 130, 3-(2-methyl-2-propenyl)-3-(2,3-dimethoxy-n-propyl α-D-galactopyranose-4-yl)-1-(2-chloroethyl)-1-nitrosourea] the ED (maximum ILS) [1] was 160 mg/kg, the ED30 [1] was 5.06 mg/kg and the “Survivors after 60 days” value [1] was 3/6. For the same compound, the “Max. ILS %” value [1] was > 340%, the “Therapeutic ratio TR” value [1] was 31.6 and the LD50 at 720 h [2] was 525 mg/kg.

With `CCCN(C(=O)N(CCCl)N=O)[C@@H]1[C@@H](O)[C@@H](OC2CCCCC2)OC[C@H]1O` [Compound 147, 3-n-propyl-3-(cyclohexyl α-D-xylopyranose-3-yl)-1-(2-chloroethyl)-1-nitrosourea] the ED (maximum ILS) [1] was 150 mg/kg, the ED30 [1] was 3.91 mg/kg and the “Survivors after 60 days” value [1] was 3/6. For the same compound, the “Max. ILS %” value [1] was > 350%, the “Therapeutic ratio TR” value [1] was 38.4 and the LD50 at 720 h [2] was 430 mg/kg.

With `CCOCCN(C[C@H]1O[C@H](OC2CCCCC2)[C@H](O)[C@@H](O)[C@H]1O)C(=O)N(CCCl)N=O` [Compound 102, 3-(2-ethoxyethyl)-3-(cyclohexyl α-D-galactopyranose-6-yl)-1-(2-chloroethyl)-1-nitrosourea] the ED (maximum ILS) [1] was 200 mg/kg, the ED30 [1] was 3.81 mg/kg and the “Survivors after 60 days” value [1] was 5/6. For the same compound, the “Max. ILS %” value [1] was > 625%, the “Therapeutic ratio TR” value [1] was 52.5 and the LD50 at 720 h [2] was 680 mg/kg.

With `C=C(C)CN(C(=O)N(CCCl)N=O)C1C(O)C(CO)OC(OC(C)CC)C1O` [Compound 85, 3-(2-methyl-2-propenyl)-3-(sec-butyl α-D-glucopyranose-3-yl)-1-(2-chloroethyl)-1-nitrosourea] the ED (maximum ILS) [1] was 220 mg/kg, the ED30 [1] was 7.25 mg/kg and the “Survivors after 60 days” value [1] was 3/6. The “Max. ILS %” value [1] was > 360%, the “Therapeutic ratio TR” value [1] was 30.3 and the LD50 at 720 h [2] was 685 mg/kg.

In the case of `CCCCO[C@H]1O[C@H](CO)[C@H](O)[C@H](O)[C@H]1N(CCC)C(=O)N(CCCl)N=O` [Compound 119, 3-n-propyl-3-(n-butyl α-D-galactopyranose-2-yl)-1-(2-chloroethyl)-1-nitrosourea], the ED (maximum ILS) [1] is reported as 200 mg/kg, the ED30 [1] is reported as 5.95 mg/kg and the “Survivors after 60 days” value [1] is reported as 3/6. For the same compound, the “Max. ILS %” value [1] was > 360%, the “Therapeutic ratio TR” value [1] was 33.6 and the LD50 at 720 h [2] was 600 mg/kg.

With `CCCO[C@H]1O[C@H](CN(CC(C)C)C(=O)N(CCCl)N=O)[C@@H](O)[C@H](O)[C@H]1O` [Compound 1, 3-isobutyl-3-(n-propyl α-D-glucopyranose-6-yl)-1-(2-chloroethyl)-1-nitrosourea] the ED (maximum ILS) [1] was 120 mg/kg, the ED30 [1] was 2.96 mg/kg and the “Survivors after 60 days” value [1] was 6/6. For the same compound, the “Max. ILS %” value [1] was > 700%, the “Therapeutic ratio TR” value [1] was 40.5 and the LD50 at 720 h [2] was 340 mg/kg.

With `CCCCN(C[C@H]1O[C@H](OC2CCCCC2)[C@H](O)[C@@H](O)[C@H]1O)C(=O)N(CCCl)N=O` [Compound 99, 3-n-butyl-3-(cyclohexyl α-D-galactopyranose-6-yl)-1-(2-chloroethyl)-1-nitrosourea] the ED (maximum ILS) [1] was 200 mg/kg, the ED30 [1] was 6.22 mg/kg and the “Survivors after 60 days” value [1] was 3/6. For the same compound, the “Max. ILS %” value [1] was > 330%, the “Therapeutic ratio TR” value [1] was 32.2 and the LD50 at 720 h [2] was 630 mg/kg.

In the case of `CC(C)CN(C[C@H]1O[C@H](OCc2ccccc2)[C@@H](O)[C@H](O)[C@@H]1O)C(=O)N(CCCl)N=O` [Compound 139, 3-isobutyl-3-(benzyl α-D-altropyranose-6-yl)-1-(2-chloroethyl)-1-nitrosourea], the ED (maximum ILS) [1] is reported as 130 mg/kg, the ED30 [1] is reported as 4.58 mg/kg and the “Survivors after 60 days” value [1] is reported as 3/6. For the same compound, the “Max. ILS %” value [1] was > 340%, the “Therapeutic ratio TR” value [1] was 28.4 and the LD50 at 720 h [2] was 420 mg/kg.

With `CCOCCCOC1OC(CO)C(O)C(O)C1N(C(=O)N(CCCl)N=O)C(C)CC` [Compound 69, 3-sec-butyl-3-(3-ethoxy-n-propyl α-D-glucopyranose-2-yl)-1-(2-chloroethyl)-1-nitrosourea] the “Survivors after 60 days” value [1] was 4/6, the “Max. ILS %” value [1] was > 435% and the LD50 at 720 h [2] was 560 mg/kg.

With `CO[C@H]1O[C@H](CNC(=O)N(CCCl)N=O)[C@@H](O)[C@H](O)[C@H]1O` [Compound 6MCαGM, 3-(methyl α-D-glucopyranose-6-yl)-1-(2-chloroethyl)-1-nitrosourea, reference compound] the “O.D. (optimum dosage)” value [1] was 29.1 mg/kg, the ILS30 [1] was 1.45 mg/kg and the “Survivors after 60 days” value [1] was 4/6. For the same compound, the “Max. ILS %” value [1] was > 450%, the “Therapeutic ratio TR” value [1] was 20.1 and the LD50 ([2]; 43200 min) was 88 mg/kg.

For `C=CCN(C[C@H]1O[C@H](OC2CCCCC2)[C@H](O)[C@@H](O)[C@@H]1O)C(=O)N(CCCl)N=O` [Compound 38, 3-(2-propenyl) -3-(cyclohexyl α-D-glucopyranose-6-yl)-1-(2-chloroethyl)-1-nitrosourea], the ED (maximum ILS) [1] was 150 mg/kg, the ED30 [1] was 3.28 mg/kg and the “Survivors after 60 days” value [1] was 6/6. The “Max. ILS %” value [1] was > 700%, the “Therapeutic ratio TR” value [1] was 45.7 and the LD50 at 720 h [2] was 430 mg/kg.

In the case of `COCC(C)OC1OC(CO)C(O)C(O)C1N(CC(C)C)C(=O)N(CCCl)N=O` (stereo not drawn) [Compound 70], the ED (maximum ILS) [1] is reported as 200 mg/kg, the ED30 [1] is reported as 5.21 mg/kg and the “Survivors after 60 days” value [1] is reported as 4/6. For the same compound, the “Max. ILS %” value [1] was > 420%, the “Therapeutic ratio TR” value [1] was 38.4 and the LD50 at 720 h [2] was 645 mg/kg.
